The values that follow come from PMC1977485, “The renal effects of N10-propargyl-5,8-dideazafolic acid (CB3717) and a non-nephrotoxic analogue ICI D1694, in mice” (British Journal of Cancer, 1991).

On the set-up of series [1]: method as in Newell et al., 1986. To be noted: radiolabelled CB3717, mice, 23 days after administration; ref Newell et al., 1986; cited from earlier work.
For series [2], the system named is C57/DBA2 mice. Kind of series: Plasma urea concentration. It is filed as in vivo. To be noted: single dose 100 mg kg-1, at 9, 10, 11 and 14 weeks, small number of animals. From the text: Br .Cncr(91) 4 3-88?McilnPesLd,19 The renal effects of N1l-propargyl-5,8-dideazafolic acid (CB3717) and a non-nephrotoxic analogue ICI D1694, in mice D.I. Jodrell', D.R. Newelll,*, S.E. Morgan', S. Clinton2, J.P.M. Bensted2, L.R. Hughes3 & A.H. Calvertl,* 'Clinical Pharmacology Team, Drug Development Section, and 2Histopathology Section, Institute of Cancer Research, 15 Cotswold Road, Sutton, Surrey SM2 SNG; and 3ICI Pharmaceuticals, Mereside, Alderley Park, Macclesfield, Cheshire SKIO 4TG, UK. Summary N-(5-[N-(3,4-dihydro-2-methyl-4-oxoquinazolin-6-ylmethyl)-N-methylamino]-2-thenoyl)-L-glutamic acid (ICI D1694) is an analogue of the thymidylate synthase inhibitor, N'?-propargyl-5,8-dideazafolic acid (CB3717). […] Previous studies have shown ICI D1694 to be non-toxic to the kidney following a single administration but its renal effects after chronic administration are unknown. […] The '4C-inulin clearance assay developed was used to show a linear relationship between CB3717 dosage and renal damage (r=-0.989) following a single bolus dose (50-200mgkg-'), in mice. CB3717-induced renal damage is persistent (>6 weeks) and renal scarring was noted. […] The plasma concentrations of urea and creatinine are com- monly measured to assess renal function during toxicological screening of new drugs. […]

The subject of series [3] is C57/DBA2 mice. Briefly: Histological examination of the kidney (H&E). It is filed as in vivo. The text has this:
Br .Cncr(91) 4 3-88?McilnPesLd,19 The renal effects of N1l-propargyl-5,8-dideazafolic acid (CB3717) and a non-nephrotoxic analogue ICI D1694, in mice D.I. Jodrell', D.R. Newelll,*, S.E. Morgan', S. Clinton2, J.P.M. Bensted2, L.R. Hughes3 & A.H. Calvertl,* 'Clinical Pharmacology Team, Drug Development Section, and 2Histopathology Section, Institute of Cancer Research, 15 Cotswold Road, Sutton, Surrey SM2 SNG; and 3ICI Pharmaceuticals, Mereside, Alderley Park, Macclesfield, Cheshire SKIO 4TG, UK. Summary N-(5-[N-(3,4-dihydro-2-methyl-4-oxoquinazolin-6-ylmethyl)-N-methylamino]-2-thenoyl)-L-glutamic acid (ICI D1694) is an analogue of the thymidylate synthase inhibitor, N'?-propargyl-5,8-dideazafolic acid (CB3717). […] Previous studies have shown ICI D1694 to be non-toxic to the kidney following a single administration but its renal effects after chronic administration are unknown. […] The '4C-inulin clearance assay developed was used to show a linear relationship between CB3717 dosage and renal damage (r=-0.989) following a single bolus dose (50-200mgkg-'), in mice. CB3717-induced renal damage is persistent (>6 weeks) and renal scarring was noted. […] However, the clinical use of CB3717 was limited by its nephrotoxicity, which was observ- ed in Phase I studies of both weekly (Vest et al., 1988) and 3-weekly administration schedules (Calvert et al., 1986; Sessa et al., 1988). Renal toxicity manifested primarily as a reduc- tion in glomerular filtration rate (GFR). However, tubular damage was also identified by the measurement of the urin- ary enzymes, N-acetyl glucosaminidase (NAG) and leucine aminopeptidase (LAP). […] In addition, urinary NAG and LAP levels were elevated in 50% of patients studied, although this elevation was not dose related (Calvert et al., 1986). CB3717-induced nephrotoxicity was thought to be due to the compound's relative insolubility at acid pH. […] To circumvent toxicity related to drug precipitation in the kidney, a series of more soluble analogues of CB3717 have been synthesised. […] One such analogue, N-(5-[N-(3,4-dihydro-2- methyl- 4 -oxoquinazolin- 6 -ylmethyl)- N -methylamino]-2-the- noyl) L-glutamic acid (ICI D1694, Figure lii) has been selected for preclinical development (Jackman et al., 1991). The plasma concentrations of urea and creatinine are com- monly measured to assess renal function during toxicological screening of new drugs. However, these parameters are rela- tively insensitive, because, in mice, a rise in plasma urea and creatinine concentration only occurs following the loss of 70-75% of functional renal mass (Everett & Harrison, 1983). Specificity is also poor because an elevation in plasma urea may be caused by 'pre-renal' (increased protein catabolism, gastric or intestinal bleeding and dehydration) or 'post-renal' (obstruction to renal outflow) causes, as well as parenchymal renal damage (Everett & Harrison, 1983). […] In man, the measurement of GFR has become accepted as a routine method for the assessment of renal function. The classical technique using inulin, which is solely cleared from the plasma by glomerular filtration, involves its constant infusion with simultaneous urine collec- tion (Jones, 1985). However, in mice, a constant infusion of inulin and simultaneous urine collection would require anaes- thesia or rigid restraint and complete emptying of the bladder before and at completion of the test (Ragan, 1989). Therefore a b Correspondence: D.I. Jodrell, Clinical Pharmacology, Drug Develop- ment Section, E Block, Institute of Cancer Research, 15 Cotswold Road, Sutton, Surrey SM2 5NG, UK. *Present address: Cancer Research Unit, The Medical School, Uni- versity of Newcastle upon Tyne, Framlington Place, Newcastle upon Tyne NE2 4HH, UK. Received 5 June 1991; and in revised form 19 July 1991. […]

In another series the test system is patients. As to conditions: cited from earlier work.
In series [4] the test system is C57/DBA2 mice. Kind of series: GFR by 14C-inulin clearance, single timed plasma sample, in drug treated mice. It is filed as in vivo. The text has this:
Br .Cncr(91) 4 3-88?McilnPesLd,19 The renal effects of N1l-propargyl-5,8-dideazafolic acid (CB3717) and a non-nephrotoxic analogue ICI D1694, in mice D.I. Jodrell', D.R. Newelll,*, S.E. Morgan', S. Clinton2, J.P.M. Bensted2, L.R. Hughes3 & A.H. Calvertl,* 'Clinical Pharmacology Team, Drug Development Section, and 2Histopathology Section, Institute of Cancer Research, 15 Cotswold Road, Sutton, Surrey SM2 SNG; and 3ICI Pharmaceuticals, Mereside, Alderley Park, Macclesfield, Cheshire SKIO 4TG, UK. Summary N-(5-[N-(3,4-dihydro-2-methyl-4-oxoquinazolin-6-ylmethyl)-N-methylamino]-2-thenoyl)-L-glutamic acid (ICI D1694) is an analogue of the thymidylate synthase inhibitor, N'?-propargyl-5,8-dideazafolic acid (CB3717). […] Previous studies have shown ICI D1694 to be non-toxic to the kidney following a single administration but its renal effects after chronic administration are unknown. […] The '4C-inulin clearance assay developed was used to show a linear relationship between CB3717 dosage and renal damage (r=-0.989) following a single bolus dose (50-200mgkg-'), in mice. CB3717-induced renal damage is persistent (>6 weeks) and renal scarring was noted. […] However, the clinical use of CB3717 was limited by its nephrotoxicity, which was observ- ed in Phase I studies of both weekly (Vest et al., 1988) and 3-weekly administration schedules (Calvert et al., 1986; Sessa et al., 1988). Renal toxicity manifested primarily as a reduc- tion in glomerular filtration rate (GFR). However, tubular damage was also identified by the measurement of the urin- ary enzymes, N-acetyl glucosaminidase (NAG) and leucine aminopeptidase (LAP). […] In addition, urinary NAG and LAP levels were elevated in 50% of patients studied, although this elevation was not dose related (Calvert et al., 1986). CB3717-induced nephrotoxicity was thought to be due to the compound's relative insolubility at acid pH. […] The plasma concentrations of urea and creatinine are com- monly measured to assess renal function during toxicological screening of new drugs. […]

For the next series, the system named is mice. Further details: method as in Jodrell et al., 1990. To be noted: single bolus doses of 500 mg kg-1; ref Jodrell et al., 1990; cited from earlier work.
For series [5] the following is noted: compared with CB3717; cited from earlier work.
[6] abbreviates: 100 mg kg-1 weekly for 6 weeks, 1 week after final dose.

On to `C#CCN(Cc1ccc2nc(N)[nH]c(=O)c2c1)c1ccc(C(=O)N[C@@H](CCC(=O)O)C(=O)O)cc1` [CB3717, N10-propargyl-5,8-dideazafolic acid], for which the “radioactivity in the kidneys” value in series [1] is “still detectable”. For the same compound, the “plasma biochemistry (urea and creatinine concentrations)” value with C57/DBA2 mice [2] was “normal”. Also, the kidney histology result in the series on C57/DBA2 mice [3] (setting [6]) is “Cortical scarring with tubular dilatation and amorphous casts”; with C57/DBA2 mice [3] (single dose 10 mg kg-1, 5 days after) it was “normal”; with C57/DBA2 mice [3] (single dose 50 mg kg-1, 5 days after), “focal tubular dilatation”; in the series on C57/DBA2 mice [3] (single dose 100 mg kg-1, 14 weeks, small number of animals) it was “cortical scarring and the presence of amorphous casts”; in the series with C57/DBA2 mice [3] (single dose 100 mg kg-1, 24 h after administration), “tubular dilatation”; in the series with C57/DBA2 mice [3] (single dose 100 mg kg-1, day 3), “focal tubular dilatation”. The kidney histology entry was “glomerular atrophy” with C57/DBA2 mice [3] (single dose 100 mg kg-1, day 20); “Tubular dilatation persisted through days 5 and 7 with increased tubular mitotic activity” with C57/DBA2 mice [3] (single dose 100 mg kg-1, days 5 and 7); “deeply pitted scars” in the series with C57/DBA2 mice [3] (single dose 100 mg kg-1, six weeks (42 days)). In addition, in the series with patients (6/17 courses at 400 mg m2 despite alkalinisation of the urine, ref Sessa et al., 1988), the “courses with reductions in GFR (creatinine clearance) of >20%” value is on record as 35%. Further, the “lowest dose causing renal damage (reduction in GFR)” value in the series with patients (bolus injection at weekly intervals, in man, ref Vest et al., 1988) is reported as 10 mg m2. The “patients with elevated urinary NAG and LAP levels” value in the series with patients (patients studied, not dose related, ref Calvert et al., 1986) was 50%. Besides, the “patients with >20% reduction in GFR” value in the series with patients (seven of 12 patients receiving more than 400 mg m2, ref Calvert et al., 1986) is 58%. Besides, the “reduction in GFR” value with C57/DBA2 mice [4] (200 mg kg-1 single ip bolus, 5 days after (Figure 4)) is reported as above 70%. Also, the “persistence of renal damage” value in the series on C57/DBA2 mice [4] (single dose 100 mg kg-1) was above 6 weeks. In the series with C57/DBA2 mice [4] (single dose of 10 mg kg-1 (30 mg m-2), 5 days after), the GFR result was “normal”.

As to `Cc1nc2ccc(CN(C)c3ccc(C(=O)N[C@@H](CCC(=O)O)C(=O)O)s3)cc2c(=O)[nH]1` [ICI D1694, N-(5-[N-(3,4-dihydro-2-methyl-4-oxoquinazolin-6-ylmethyl)-N-methylamino]-2-thenoyl)-L-glutamic acid], the kidney histology entry in the series on C57/DBA2 mice [3] (setting [6]) is recorded as “no histological evidence of renal damage”; in the series on C57/DBA2 mice [3] (250 mg kg-1 weekly for 6 weeks, 1 week after final dose), “normal in 5/5 mice”. Also, in the series on mice, the acute renal toxicity entry is reported as “absence of acute renal toxicity”. The water solubility result in series [5] is “more water soluble”.
